For assay [1], the system named is effect of serotonin on the caudal artery of the rat. As to the kind of experiment: Antagonistic activity on the effect of serotonin on the caudal artery of the rat (Test 1). The settings on record: minimal concentration reducing amplitude of serotonin (40 ng/ml) contraction to at least 50% of normal; rat caudal artery strips; 5 min. The procedure: Test 1: Anta gonistic activity on the effect of serotonin on the caudal artery of the rat.
Caudal arteries from fasted male rats (210-235 g) are used in the test. Two helical strips having a length of 5-6 cm and a width of 2 mm are obtained from each artery and mounted vertically in a 100 ml organ bath containing an oxygenated Krebs-Henseleit solution. Submaximal contractions of the arterial strips are produced by adding single doses of serotonin (40 ng/ml) to the organ bath for 2 minutes with each time an interval of 10 minutes. The amplitude of the contraction is measured before and 5 minutes after adding the drug. After washing out, the agonist is added again three times in order to see whether the contraction is restored and normalized. […] In this connection the ED50 -values are the minimal concentrations of the concerned drugs which reduce the amplitude of the contraction to at least 50% of its normal value.

In assay [2] the test system is gastric lesions induced by compound 48/80. Description: Gastric lesion test: lesions induced by compound 48/80 (Test 2). Type of assay: in vivo, rat (male, Wistar inbred strain). The settings on record: Rattus norvegicus, po. The procedure: Test 2: Effects in gastric lesion tests
The shock, followed by dead, can be avoided if the rats are pretreated with a classical H 1 antagonist.
Male rats of a Wistar inbred strain, weighing 200-250 g, are starved overnight, water being available ad libitum. The test compounds are administered orally as a solution or as a suspension in aqueous medium. A control rat and a "blank" rat […]. One hour later 5-[4-(diphenylmethyl)-1-piperazinylmethyl]-1-methyl-1H-benzimidazole-2-methanol is administered subcutaneously to all rats at the dose of 2.5 mg/kg. […] Four hours after the intravenous injection of compound 48/80, the rats are decapitated and the stomachs are removed. Subsequently the stomachs are inspected for distension and contents (blood, fluid, food) and thoroughly rinsed. The macroscopic lesions are secured from 0 to +++, 0 corresponding to complete absence of visible lesions and the highest score corresponding to reddish rough patches covering more than half the glandular area.

Assay [3] has as its system rats injected with compound 48/80. The conditions noted are these: known serotonin antagonists; cited from earlier work.

As a reminder, the ED50 is the dose that gives a 50% effect, or the effect in half of the subjects.

For `Cc1ccn2c(=O)c(CCN3CCC(C(=O)c4ccc(F)cc4)CC3)c(C)nc2c1` [H 8-CH3 CH2CH2 H C6 H4 .4F], the “Caudal Artery ED50” value in assay [1] is < 2.5 ng/mL. In addition, the 50% effect level in assay [2] (ED50) was put at a dose of 0.04 mg/kg.

As to `Cc1ccn2c(=O)c(CCN3CCC(c4c[nH]c5ccccc45)CC3)c(C)nc2c1` [H 8-CH3, 3-[2-[4-(1H-indol-3-yl)-1-piperidinyl]ethyl]-2,8-dimethyl-4H-pyrido[1,2-a]pyrimidin-4-one], the “Caudal Artery ED50” value in assay [1] amounted to 0.31 ng/mL. Moreover, the 50% effect level in assay [2] (ED50) was put at a dose of 0.04 mg/kg.

For `Cc1nc2ccccn2c(=O)c1CCN1CCC(CO)(C(=O)c2ccc(F)cc2)CC1.Cl.Cl.O` [H H CH2CH2 CH2 OH C6 H4 .4F, 3-[2-[4-(4-fluorobenzoyl)-4-(hydroxymethyl)-1-piperidinyl]ethyl]-2-methyl-4H-pyrido[1,2-a]pyrimidin-4-one dihydrochloride monohydrate], the ED50 in assay [2] was < 0.63 mg/kg.

Regarding `Cc1nc2ccc(Cl)cn2c(=O)c1CCN1CCC(c2c[nH]c3ccccc23)CC1` [H 7-Cl, 7-chloro-3-[2-[4-(1H-indol-3-yl)-1-piperidinyl]ethyl]-2-methyl-4H-pyrido[1,2-a]pyrimidin-4-one], the “Caudal Artery ED50” value in assay [1] came to 0.63 ng/mL. For the same molecule, the ED50 in assay [2] came to 0.63 mg/kg.

Turning to `Cc1nc2ccccn2c(=O)c1CCN1CCC(C(=O)c2ccc(F)cc2)CC1` [H H CH2CH2 H C6 H4 .4F, 3-[2-[4-(4-fluorobenzoyl)-1-piperidinyl]ethyl]-2-methyl-4H-pyrido[1,2-a]pyrimidin-4-one], the “Caudal Artery ED50” value in assay [1] turned out to be 0.32 ng/mL. In assay [2], this molecule came in with an ED50 of 0.016 mg/kg.

As to `Cc1nc2cccc(C)n2c(=O)c1CCN1CCC(C(=O)c2ccc(F)cc2)CC1` [H 6-CH3 CH2CH2 H C6 H4 .4F], the “Caudal Artery ED50” value in assay [1] was < 0.63 ng/mL. Besides, the 50% effect level in assay [2] (ED50) was put at a dose of 2.5 mg/kg.

`Cc1nc2ccccn2c(=O)c1CC(C)N1CCC(C(=O)c2ccc(F)cc2)CC1` (stereo not shown) [H H drawing 24 H C6 H4 .4F] came in with an ED50 in assay [2] of 2.5 mg/kg.

On to `NC(=O)C1(N2CCCCC2)CCN(CCCC(=O)c2ccc(F)cc2)CC1` [pipamperone], for which the “prevention of cyanosis of ears and extremities, of lesions in the glandular area of the stomach and of abnormal gastric distension” value (“prevention” for short) in assay [3] is reported as “prevent completely”.

Take `CN(C)CCCSc1ccccc1NC(=O)/C=C/c1ccccc1` [cinanserin]: the “prevention” value in assay [3] is “prevent completely”.

Consider `Cc1ccc2nc(C)c(CCN3CCC(C(=O)c4ccc(F)cc4)CC3)c(=O)n2c1` [H 7-CH3 CH2CH2 H C6 H4.4F], for which the “Caudal Artery ED50” value in assay [1] turned out to be 0.31 ng/mL. The molecule further registered an ED50 in assay [2] of 0.02 mg/kg.

For `CN1CCC(=C2c3ccccc3C=Cc3ccccc32)CC1` [cyproheptadine], in assay [3], the “prevention” value was “prevent completely”.

Consider `Cc1nc2ccc(Br)cn2c(=O)c1CCN1CCC(c2c[nH]c3ccccc23)CC1` [H 7-Br, 7-bromo-3-[2-[4-(1H-indol-3-yl)-1-piperidinyl]ethyl]-2-methyl-4H-pyrido[1,2-a]pyrimidin-4-one], for which, in assay [1], the “Caudal Artery ED50” value was found to be 0.31 ng/mL. In assay [2], this molecule displayed an ED50 of 1.25 mg/kg.

On to `Cc1cc(C)n2c(=O)c(CCN3CCC(c4c[nH]c5ccccc45)CC3)c(C)nc2c1` [6-CH3 8-CH3, 3-[2-[4-(1H-indol-3-yl)-1-piperidinyl]ethyl]-2,6,8-trimethyl-4H-pyrido[1,2-a]pyrimidin-4-one], for which the “Caudal Artery ED50” value in assay [1] turned out to be 0.16 ng/mL. Moreover, it took a dose of 0.63 mg/kg to reach the 50% effect level in assay [2] (ED50).

Take `Cc1nc2cccc(C)n2c(=O)c1CCN1CCC(c2c[nH]c3ccccc23)CC1` [H 6-CH3, 3-[2-[4-(1H-indol-3-yl)-1-piperidinyl]ethyl]-2,6-dimethyl-4H-pyrido[1,2-a]pyrimidin-4-one]: the “Caudal Artery ED50” value in assay [1] came to 0.08 ng/mL. In assay [2], this molecule gave an ED50 of 0.16 mg/kg.

Turning to `Cc1nc2ccccn2c(=O)c1CCN1CCC(O)(C(=O)c2ccc(F)cc2)CC1` [H H CH2CH2 OH C6 H4 .4F], the “Caudal Artery ED50” value in assay [1] was determined as 0.31 ng/mL. The molecule further returned an ED50 in assay [2] of 2.5 mg/kg.

Take `CN1CCN2c3ccccc3Cc3ccccc3C2C1` (stereo not shown) [mianserin]: the “prevention” value in assay [3] is given as “prevent completely”.

`O=C(CCCN1CCC2(CC1)C(=O)NCN2c1ccccc1)c1ccc(F)cc1` [spiperone]: the “prevention” value in assay [3] is recorded as “prevent completely”.

For the molecule `Cc1nc2ccccn2c(=O)c1CCN1CCC(C(=O)c2ccccc2)CC1` [H H CH2CH2 H C6 H5, 3-[2-(4-benzoyl-1-piperidinyl)ethyl]-2-methyl-4H-pyrido[1,2-a]pyrimidin-4-one], in assay [1], the “Caudal Artery ED50” value amounted to 0.63 ng/mL. This molecule also gave an ED50 in assay [2] of 0.63 mg/kg.

On to `CN1CCC(=C2c3ccccc3CCc3sccc32)CC1` [pizotifen], for which, in assay [3], the “prevention” value was “prevent completely”.

Consider `Cc1nc2ccccn2c(=O)c1CCN1CCC(C(=O)c2cccs2)CC1` [H H CH2CH2 H 2-thienyl], for which, in assay [1], the “Caudal Artery ED50” value is 1.3 ng/mL.

Consider `Cc1nc2ccccn2c(=O)c1CCN1CCC(c2c[nH]c3ccccc23)CC1` [H H, 3-[2-[4-(1H-indol-3-yl)-1-piperidinyl]ethyl]-2-methyl-4H-pyrido[1,2-a]pyrimidin-4-one], for which the “Caudal Artery ED50” value in assay [1] turned out to be 0.14 ng/mL. Also, the 50% effect level in assay [2] (ED50) was put at a dose of 0.08 mg/kg.

For the molecule `Cc1nc2ccc(Br)cn2c(=O)c1CCN1CCC(C(=O)c2ccc(F)cc2)CC1` [H 7-Br CH2CH2 H C6 H4 .4F], the “Caudal Artery ED50” value in assay [1] amounted to 0.31 ng/mL. Moreover, in assay [2], the median effective dose (ED50) is < 0.63 mg/kg.

Consider `CN1C[C@H](CNC(=O)OCc2ccccc2)C[C@@H]2c3cccc4c3c(cn4C)C[C@H]21` [metergoline], for which, in assay [3], the “prevention” value is given as “prevent completely”.

With `CC[C@@H](CO)NC(=O)[C@@H]1C=C2c3cccc4c3c(cn4C)C[C@H]2N(C)C1` [methysergide], the “prevention” value in assay [3] was “prevent completely”.

For `Cc1nc2ccc(Cl)cn2c(=O)c1CCN1CCC(C(=O)c2ccc(F)cc2)CC1` [H 7-Cl CH2CH2 H C6 H4.4F], the “Caudal Artery ED50” value in assay [1] amounted to 1.25 ng/mL. This molecule registered an ED50 in assay [2] of 0.01 mg/kg.

For `Cc1ccccc1C(=O)C1CCN(CCc2c(C)nc3ccccn3c2=O)CC1` [H H CH2CH2 H C6 H4.2CH3], in assay [1], the “Caudal Artery ED50” value came to 1.25 ng/mL.

As to `Cc1ccc2nc(C)c(CCN3CCC(c4c[nH]c5ccccc45)CC3)c(=O)n2c1` [H 7-CH3, 3-[2-[4-(1H-indol-3-yl)-1-piperidinyl]ethyl]-2,7-dimethyl-4H-pyrido-[1,2-a]pyrimidin-4-one], in assay [1], the “Caudal Artery ED50” value was determined as 0.31 ng/mL. It took a dose of 0.63 mg/kg to reach the 50% effect level in assay [2] (ED50).

Consider `Cc1nc2ccccn2c(=O)c1CCN1CCC(C)(C(=O)c2ccc(F)cc2)CC1` [H H CH2CH2 CH3 C6 H 4 .4F], for which, in assay [1], the “Caudal Artery ED50” value amounted to 0.63 ng/mL. It took a dose of 0.16 mg/kg to reach the 50% effect level in assay [2] (ED50).

Turning to `Cc1cc(C)n2c(=O)c(CCN3CCC(C(=O)c4ccc(F)cc4)CC3)c(C)nc2c1` [6-CH3 8-CH3 CH2CH2 H C6 H4.4F], in assay [1], the “Caudal Artery ED50” value is 0.16 ng/mL. In addition, it took a dose of 0.02 mg/kg to reach the 50% effect level in assay [2] (ED50).

(Values after patent US4342870A, “Novel 3-(1-piperidinylalkyl)-4H-pyrido[1,2-a]pyrimidin-4-one derivatives” (Janssen Pharmaceutica N.V., priority 1980, dated 1982).)
